Data reported in article PMC6230509 (Neuropharmacology, 2018).
Where two headings read alike, the source gives them in different places.

How the values were obtained:
[1] = biological target: 5-HT2A receptor; settings: read-out: Ki vs. [3H]ketanserin, ref Stevenson et al. 2000; cited from earlier work
[2] = system: head twitch response (5-HT2A receptor-mediated); test: Head twitch response; format: in vivo, C57BL/6J mice; settings: for activity in the HTR assay (in words): C57BL/6J mice, within the dose range tested; for ED50: Mus musculus, ip
[3] = humans, ref Shulgin and Shulgin 2004, cited from earlier work
[4] = system: recombinant human 5-HT2A receptors; settings: ref Arunotayanun et al. 2013; cited from earlier work
[5] = system: DOM discriminative stimulus; settings: ref Gatch et al. 2017; cited from earlier work
[6] = system: 5-MeO-DMT discriminative stimulus; settings: ref Glennon et al. 1980a; cited from earlier work
[7] = biological target: rat 5-HT2A receptor; settings: read-out: Ki, rat 5-HT2A receptor; [3H]ketanserin; ref Gallaher et al. (1993); cited from earlier work
[8] = read-out: ED50 (95% CI) (mg/kg)
[9] = read-out: ED50 (95% CI) (μmol/kg)
[10] = 0.875 mg/kg IP, duration 30 min
[11] = HTR, IP, male C57BL/6J mice, analysis block 5–30 min depending on drug

CCN(CC)CCc1c(-c2ccccc2)[nH]c2ccccc12 [2-phenyl-N,N-diethyltryptamine]
Ki [1]: 2.8 nM

C=CCN(CC=C)CCc1c[nH]c2ccc(OC)cc12 [5-MeO-DALT, 5-methoxy-N,N-diallyltryptamine]
HTR Counts (mean ± SEM) ([2]; 1.75 mg/kg IP, duration 20 min): 6.6 ± 1.0
HTR Counts (mean ± SEM) ([2]; 3.5 mg/kg IP, duration 20 min): 19.8 ± 1.5
HTR Counts (mean ± SEM) ([2]; 7 mg/kg IP, duration 20 min): 8.8 ± 2.6
HTR Counts (mean ± SEM) ([2]; 14 mg/kg IP, duration 20 min): 8.0 ± 4.9
activity in the HTR assay (in words) ([2]; IP): active
ED50 [2, 8]: 2.25 mg/kg
ED50 [2, 9]: 7.3 µmol/kg
duration of psychoactive effects ([3]; oral 12–20 mg): 2 to 4 h
oral doses producing psychoactive effects ([3]; oral): 12 to 20 mg
functional activity at recombinant human 5-HT2A receptors [4]: agonist
substitution in rats trained to discriminate DOM [5]: full substitution

CN(C)CCc1c(-c2ccccc2)[nH]c2ccccc12 [2-phenyl-N,N-dimethyltryptamine]
Ki [1]: 4.4 nM

CCc1cccc2c(CCN(C)C)c[nH]c12 [7-Ethyl-DMT]
substitution in rats trained to discriminate 5-MeO-DMT from vehicle [6]: partial substitution

C=CCN(CC=C)CCc1c[nH]c2ccccc12 [DALT, N,N-diallyltryptamine]
HTR Counts (mean ± SEM) [2, 10]: 8.2 ± 2.8
HTR Counts (mean ± SEM) ([2]; 1.75 mg/kg IP, duration 30 min): 6.8 ± 2.6
HTR Counts (mean ± SEM) ([2]; 3.5 mg/kg IP, duration 30 min): 14.2 ± 4.3
HTR Counts (mean ± SEM) ([2]; 7 mg/kg IP, duration 30 min): 21.8 ± 4.4
HTR Counts (mean ± SEM) ([2]; 14 mg/kg IP, duration 30 min): 20.6 ± 2.7
activity in the HTR assay (in words) ([2]; IP): active
ED50 (95% CI) (mg/kg) [2, 11]: 3.42 (2.44–4.79) mg/kg
ED50 (95% CI) (μmol/kg) [2, 11]: 12.3 (8.8–17.3) μmol/kg

C=CCN(CC=C)CCc1c[nH]c2ccc(F)cc12 [5-F-DALT, 5-fluoro-N,N-diallyltryptamine]
HTR Counts (mean ± SEM) [2, 10]: 9.8 ± 2.6
HTR Counts (mean ± SEM) ([2]; 1.75 mg/kg IP, duration 30 min): 21.0 ± 5.7
HTR Counts (mean ± SEM) ([2]; 3.5 mg/kg IP, duration 30 min): 36.0 ± 6.8
HTR Counts (mean ± SEM) ([2]; 7 mg/kg IP, duration 30 min): 26.8 ± 7.1
HTR Counts (mean ± SEM) ([2]; 14 mg/kg IP, duration 30 min): 21.0 ± 4.0
activity in the HTR assay (in words) ([2]; IP): active
ED50 [2, 8]: 1.58 mg/kg
ED50 [2, 9]: 5.4 µmol/kg

CN(C)CCc1c[nH]c2ccc(O)cc12 [bufotenine]
Ki [7]: 520 nM

C=CCN(CC=C)CCc1c[nH]c2ccc(Br)cc12 [5-Br-DALT, 5-bromo-N,N-diallyltryptamine]
HTR Counts (mean ± SEM) ([2]; 3.5 mg/kg IP, duration 30 min): 5.0 ± 0.3
HTR Counts (mean ± SEM) ([2]; 7 mg/kg IP, duration 30 min): 10.8 ± 2.7
HTR Counts (mean ± SEM) ([2]; 14 mg/kg IP, duration 30 min): 8.6 ± 2.7
HTR Counts (mean ± SEM) ([2]; 28 mg/kg IP, duration 30 min): 1.4 ± 0.4
HTR Counts (mean ± SEM) ([2]; 56 mg/kg IP, duration 30 min): 1.4 ± 1.4
activity in the HTR assay (in words) ([2]; IP): active
ED50 [2, 8]: 4.8 mg/kg
ED50 [2, 9]: 13.5 µmol/kg

CN(C)CCc1c[nH]c2cccc(O)c12 [psilocin, 4-hydroxy-DMT]
Ki [7]: 5100 nM
